The subject of this experiment is CD2F1 mice, ip Colon 26 adenocarcinoma, median survival T/C. In words: NCI In Vivo Anticancer Drug Screen. Data for tumor model Colon 26 Adenocarcinoma (intraperitoneal) in CD2F1 (CDF1) mice. The conditions noted are these: endpoint: median survival time, higher = longer survival. How it is done:
The antitumor activity of compounds was measured in mice bearing transplantable tumors. Survival or tumor size were measured and the results are expressed as the measurement made in the treated group (T) divided by the measurement made in the vehicle treated control group (C). The tumor model used in this assay is Colon 26 Adenocarcinoma (intraperitoneal) in CD2F1 (CDF1) mice

Setting [1] is: dose: 8.0 mg/kg/injection, schedule: Q04DX002 (ip), vehicle: saline with Tween-80.
The mark [2] stands for this setting: dose: 16.0 mg/kg/injection, schedule: Q04DX002 (ip), vehicle: saline with Tween-80.
Setting [3] is: dose: 32.0 mg/kg/injection, schedule: Q04DX002 (ip), vehicle: saline with Tween-80.
Setting [4] is: dose: 64.0 mg/kg/injection, schedule: Q04DX002 (ip), vehicle: saline with Tween-80.
Where [5] appears, read: dose: 0.5 mg/kg/injection, schedule: Q04DX003 (ip), vehicle: saline.
Setting [6] is: dose: 1.0 mg/kg/injection, schedule: Q04DX003 (ip), vehicle: saline.
Setting [7] is: dose: 2.0 mg/kg/injection, schedule: Q04DX003 (ip), vehicle: saline.

“And” between values parts separate entries of the source, which are not always exact repeats. Equal entries are not always repeated. Inconclusive results and toxic doses are left out.

Take `Cc1[nH]c(=O)[nH]c(=O)c1N(CCF)CCCl`: the T/C runs as follows: (dose: 8.0 mg/kg/injection, schedule: Q04DX002 (ip), vehicle: Klucel (hydroxypropylcellulose) (HPC)) 111 % of control and 112 % of control; (dose: 16.0 mg/kg/injection, schedule: Q04DX002 (ip), vehicle: Klucel (hydroxypropylcellulose) (HPC)) 114 % of control and 121 % of control; (dose: 32.0 mg/kg/injection, schedule: Q04DX002 (ip), vehicle: Klucel (hydroxypropylcellulose) (HPC)) 122 % of control.
Regarding `COC1C(O)C(C)OC(OC2C(Oc3cccc4c(O)c5c(=O)oc6ccc(C)c7c(=O)oc(c34)c5c67)OC(C)C(O)C2O)C1O` (centres undefined), the T/C reads like this: (dose: 12.5 mg/kg/injection, schedule: Q04DX002 (ip), vehicle: Klucel (hydroxypropylcellulose) (HPC)) 105 % of control and 112 % of control; (dose: 12.5 mg/kg/injection, schedule: Q04DX003 (ip), vehicle: Klucel (hydroxypropylcellulose) (HPC)) 106 % of control; (dose: 25.0 mg/kg/injection, schedule: Q04DX002 (ip), vehicle: Klucel (hydroxypropylcellulose) (HPC)) 107 % of control and 118 % of control; (dose: 25.0 mg/kg/injection, schedule: Q04DX003 (ip), vehicle: Klucel (hydroxypropylcellulose) (HPC)) 116 % of control; (dose: 50.0 mg/kg/injection, schedule: Q04DX002 (ip), vehicle: Klucel (hydroxypropylcellulose) (HPC)) 106 % of control; (dose: 50.0 mg/kg/injection, schedule: Q04DX003 (ip), vehicle: Klucel (hydroxypropylcellulose) (HPC)) 106 % of control. Moreover, the T/C (dose: 100.0 mg/kg/injection, schedule: Q04DX002 (ip), vehicle: Klucel (hydroxypropylcellulose) (HPC)) is 107 % of control and 100 % of control; the T/C (dose: 100.0 mg/kg/injection, schedule: Q04DX003 (ip), vehicle: Klucel (hydroxypropylcellulose) (HPC)) is 110 % of control.
As to `CCOC(=O)CC(SP(=S)(OC)OC)C(=O)OCC` (centres undefined), the T/C is 103 % of control (dose: 25.0 mg/kg/injection, schedule: Q04DX002 (ip), vehicle: saline); 94 % of control (dose: 50.0 mg/kg/injection, schedule: Q04DX002 (ip), vehicle: saline); 104 % of control (dose: 100.0 mg/kg/injection, schedule: Q04DX002 (ip), vehicle: saline); 90 % of control (dose: 200.0 mg/kg/injection, schedule: Q04DX002 (ip), vehicle: saline); 91 % of control (dose: 400.0 mg/kg/injection, schedule: Q04DX002 (ip), vehicle: saline).
As for `Nc1nc(=S)c2ncn(C3CC(O)C(CO)O3)c2[nH]1` (centres undefined), the T/C (dose: 4.0 mg/kg/injection, schedule: Q04DX002 (ip), vehicle: saline with Tween-80) is 121 % of control; the T/C under setting [1] was 106 % of control; the T/C (dose: 10.0 mg/kg/injection, schedule: Q04DX003 (ip), vehicle: saline with Tween-80) is 177 % of control; the T/C under setting [2] was 106 % of control and 119 % of control; the T/C under setting [3] is 102 % of control; the T/C (dose: 40.0 mg/kg/injection, schedule: Q04DX003 (ip), vehicle: saline with Tween-80) is 157 % of control. Further, the T/C reads like this: under setting [4], 124 % of control; (dose: 128.0 mg/kg/injection, schedule: Q04DX002 (ip), vehicle: saline with Tween-80) 116 % of control; (dose: 256.0 mg/kg/injection, schedule: Q04DX002 (ip), vehicle: saline with Tween-80) 109 % of control.
As to `C[C@]12CCC(=O)C=C1CC[C@@H]1[C@@H]2[C@@H](O)C[C@@]2(C)[C@H]1CC[C@]2(O)C(=O)CO`, the T/C was 102 % of control (dose: 40.0 mg/kg/injection, schedule: Q04DX003 (ip), vehicle: Klucel (hydroxypropylcellulose) (HPC)); 100 % of control (dose: 80.0 mg/kg/injection, schedule: Q04DX003 (ip), vehicle: Klucel (hydroxypropylcellulose) (HPC)); 102 % of control (dose: 160.0 mg/kg/injection, schedule: Q04DX003 (ip), vehicle: Klucel (hydroxypropylcellulose) (HPC)); 102 % of control (dose: 320.0 mg/kg/injection, schedule: Q04DX003 (ip), vehicle: Klucel (hydroxypropylcellulose) (HPC)); 96 % of control (dose: 640.0 mg/kg/injection, schedule: Q04DX003 (ip), vehicle: Klucel (hydroxypropylcellulose) (HPC)).
For `COc1ccc(CC2C(=O)NC(C)C(=O)N(C)C3C(=O)N(C)C(Cc4ccc(O)c(c4)Oc4ccc(cc4)C3O)C(=O)NC(C)C(=O)NC(C)C(=O)N2C)cc1` (centres undefined), the T/C was 98 % of control under setting [5]; 101 % of control under setting [6]; 91 % of control (dose: 1.08 mg/kg/injection, schedule: Q04DX003 (ip), vehicle: other); 113 % of control (dose: 1.8 mg/kg/injection, schedule: Q04DX003 (ip), vehicle: other); 92 % of control under setting [7]; 120 % of control (dose: 3.0 mg/kg/injection, schedule: Q04DX003 (ip), vehicle: other). Under “dose: 5.0 mg/kg/injection, schedule: Q04DX003 (ip), vehicle: other”, the T/C was 114 % of control.
For `CN(Cc1cnc2nc(N)nc(N)c2n1)c1ccc(C(=O)N[C@@H](CCC(=O)O)C(=O)O)cc1`, the T/C was 105 % of control (dose: 30.0 mg/kg/injection, schedule: Q07DX003 (ip), vehicle: saline); 88 % of control (dose: 44.0 mg/kg/injection, schedule: Q07DX003 (ip), vehicle: saline); 121 % of control (dose: 44.0 mg/kg/injection, schedule: Q07DX003 (ip), vehicle: sodium bicarbonate); 93 % of control (dose: 63.0 mg/kg/injection, schedule: Q07DX003 (ip), vehicle: saline).
In the case of `Nc1ncn(C2OC(CO)C(O)C2O)c(=O)n1` (centres undefined), the T/C runs as follows: (dose: 13.0 mg/kg/injection, schedule: Q04DX003 (iv), vehicle: saline) 107 % of control; (dose: 21.0 mg/kg/injection, schedule: Q04DX003 (iv), vehicle: saline) 92 % of control.
In the case of `Cc1cnc(/C=N\NC(N)=S)c2cccc(N)c12`, the T/C is 110 % of control (dose: 25.0 mg/kg/injection, schedule: Q04DX003 (iv), vehicle: other); 103 % of control (dose: 42.0 mg/kg/injection, schedule: Q04DX003 (iv), vehicle: other); 108 % of control (dose: 68.0 mg/kg/injection, schedule: Q04DX003 (iv), vehicle: other).
As to `Cc1ncc(CNC(=O)N(CCCl)N=O)c(N)n1`, the T/C (dose: 25.0 mg/kg/injection, schedule: Q04DX003 (oral), vehicle: saline) is 360 % of control; the T/C (dose: 40.0 mg/kg/injection, schedule: Q04DX003 (oral), vehicle: saline) was 340 % of control; the T/C (dose: 64.0 mg/kg/injection, schedule: Q04DX003 (oral), vehicle: saline) is 95 % of control.
As to `CO[C@H](C(=O)[C@@H](O)[C@@H](C)O)[C@@H]1Cc2cc3cc(OC4CC(OC5CC(O)C(O)C(C)O5)C(O)C(C)O4)c(C)c(O)c3c(O)c2C(=O)[C@H]1OC1CC(OC2CC(OC3CC(C)(O)C(O)C(C)O3)C(O)C(C)O2)C(O)C(C)O1` (some centres undefined), the T/C was 96 % of control (dose: 0.25 mg/kg/injection, schedule: Q04DX003 (ip), vehicle: saline); 98 % of control under setting [5]; 98 % of control under setting [6]; 100 % of control under setting [7].
Turning to `CCCCCCCCNc1cc2c3c(c1)CCCN3CCC2`, the T/C is, setting by setting: (dose: 0.37 mg/kg/injection, schedule: Q04DX003 (ip), vehicle: Klucel (hydroxypropylcellulose) (HPC)) 104 % of control; (dose: 0.75 mg/kg/injection, schedule: Q04DX003 (ip), vehicle: Klucel (hydroxypropylcellulose) (HPC)) 100 % of control; (dose: 1.5 mg/kg/injection, schedule: Q04DX003 (ip), vehicle: Klucel (hydroxypropylcellulose) (HPC)) 102 % of control; (dose: 3.0 mg/kg/injection, schedule: Q04DX003 (ip), vehicle: Klucel (hydroxypropylcellulose) (HPC)) 109 % of control; (dose: 6.0 mg/kg/injection, schedule: Q04DX003 (ip), vehicle: Klucel (hydroxypropylcellulose) (HPC)) 106 % of control.
Take `CCCCCCCC(=O)OCC(=O)[C@]1(O)Cc2c(O)c3c(c(O)c2[C@@H](OC2CC(N)C(O)C(C)O2)C1)C(=O)c1c(OC)cccc1C3=O` (some centres undefined): the T/C reads like this: (dose: 4.5 mg/kg/injection, schedule: Q07DX003 (iv), vehicle: saline) 112 % of control; (dose: 7.0 mg/kg/injection, schedule: Q07DX003 (iv), vehicle: saline) 112 % of control.
Regarding `C=C1C(=O)C23C(O)CC4C5(C)CCCC4(C(O)OC5)C2C(OC(C)=O)CC1C3O` (centres undefined), the T/C runs as follows: under setting [1], 116 % of control; under setting [2], 109 % of control; under setting [3], 92 % of control; under setting [4], 103 % of control.

The values above are taken from PubChem BioAssay AID210 (DTP/NCI, 2004).
